Measured values: patent US10221139B2, “Inhibitors of histone demethylases” (Gilead Sciences, Inc., priority 2012, dated 2019)

Each molecule was assayed on demethylation of H3K4 (H3K4me3 mark) in U2OS cells (assay: Histone lysine demethylase immunofluorescence assay, non-transfected U2OS cells (H3K4me3 staining)). Conditions: Homo sapiens, 20 hours.
Format: cell-based
Method: Histone Lysine Demethylase Immunofluorescence Assays for IC50 Value Determination, Non-Transfected Cells
U2OS cells were harvested and seeded into multi well plates into media containing compound. The media used was DMEM containing 5% FBS and pen/strep. 20 hours after incubation of cells with compounds, the cells were washed once in PBS, harvested by fixation with formaldehyde 4% aqueous solution, and washed 2 times in PBS. Subsequently, the cells were permeabilized in PBS with 0.2% Triton X-100 for 10 min at room temperature. Blocking was performed in PBS with 0.2% Triton X-100 and 5% FBS for 45 min at room temperature. The cells were incubated with αH3K4me3 primary antibody (Cell Signaling, #9751S) diluted 1:1000 in blocking solution over night at 4° C. After incubation with primary antibody, the cells were washed 3 times with PBS, incubated with secondary antibody diluted 1:1000 (Alexa fluor 594 goat anti rabbit IgG, Invitrogen, A11012) and Hoechst, 20 μg/ml (Sigma, 33342) in blocking solution, and washed again 3 times with PBS. Finally, PBS was added and high throughput imaging and analysis were performed by an IN Cell Analyzer 1000 (GE Healthcare). The IC50 values seen in Table 4 were based on an average measure of the staining of the H3K4me3 mark in cells.

Row | SMILES | IC50 [µM]
1 | CCN(CC)CCCCNCc1cc(C(=O)Oc2c(OC)cccc2OC)ccn1 [drawing 232, 2,6-dimethoxyphenyl 2-({[4-(diethylamino)butyl]amino}methyl) pyridine-4-carboxylate] | < 1
2 | CCN(CC)CCCCNCc1cc(C(=O)Oc2ccc(OC)cc2)ccn1 [drawing 227, 4-methoxyphenyl 2-({[4-(diethylamino)butyl]amino}methyl) pyridine-4-carboxylate] | < 1
3 | CCOC(=O)N(C)c1ccc(COC(=O)c2ccnc(CNCCCCN(CC)CC)c2)cc1 [drawing 236] | < 1
4 | CCCCCCCCCCCCCCCC(=O)OCC(COC(=O)c1ccnc(CNCC(=O)N(CC)CCN(C)C)c1)OC(=O)CCCCCCCCCCCCCCC (centres unmarked) [drawing 245, 1-(2-{[({[2-(dimethylamino)ethyl](ethyl)carbamoyl}methyl)amino]methyl}pyridine-4-carbonyloxy)-3-(hexadecanoyloxy)propan-2-yl hexadecanoate] | < 1
5 | CCN(CCN(C)C)C(=O)CNCc1cc(C(=O)OC(C)CCN(C)C(=O)C(F)(F)F)ccn1 (centres unmarked) [drawing 240, 4-(2,2,2-trifluoro-N-methylacetamido)butan-2-yl 2-{[({[2-(dimethylamino)ethyl](ethyl)carbamoyl}methyl)amino]methyl}pyridine-4-carboxylate] | < 1
6 | CCOC(=O)Nc1ccc(COC(=O)c2ccnc(CNCCCCN(CC)CC)c2)cc1 [drawing 231, {4-[(ethoxycarbonyl)amino]phenyl}methyl 2-({[4-(diethylamino)butyl]amino}methyl) pyridine-4-carboxylate] | < 1
7 | O=C(CNCc1cc(C(=O)O)ccn1)NC1CCN(CCCc2ccccc2)CC1 [drawing 223, 2-{[({[1-(3-phenylpropyl)piperidin-4-yl]carbamoyl}methyl)amino]methyl} pyridine-4-carboxylic acid] | > 50
8 | C=CC(CCNC(=O)C(F)(F)F)OC(=O)c1ccnc(CNCC(=O)N(CC)CCN(C)C)c1 (centres unmarked) [drawing 242, 5-(trifluoroacetamido)pent-1-en-3-yl 2-{[({[2-(dimethylamino)ethyl](ethyl)carbamoyl}methyl)amino]methyl}pyridine-4-carboxylate] | < 1
9 | CCOC(=O)c1ccccc1OC(=O)c1ccnc(CNCCCCN(CC)CC)c1 [drawing 228, 2-(ethoxycarbonyl)phenyl 2-({[4-(diethylamino)butyl]amino}methyl) pyridine-4-carboxylate] | < 1
10 | CCN(CCN(C)C)C(=O)CNCc1cc(C(=O)Oc2c(OC(C)C)cccc2OC(C)C)ccn1 [drawing 253, 2,6-bis(propan-2-yloxy)phenyl 2-{[({[2-(dimethylamino)ethyl](ethyl)carbamoyl}methyl)amino]methyl}pyridine-4-carboxylate] | 1 to 50
11 | CCN(CC)CCCCNCc1cc(C(=O)OCCN(C)C)ccn1 [drawing 229, 2-(dimethylamino)ethyl 2-({[4-(diethylamino)butyl]amino}methyl) pyridine-4-carboxylate] | 1 to 50

Results, then the molecule that gave them:

Row | IC50 [µM] | SMILES
12 | 1 to 50 | CCN(CCN(C)C)C(=O)CNCc1cc(C(=O)N(C)S(C)(=O)=O)ccn1 [drawing 247, 2-{[({[2-(dimethylamino)ethyl](ethyl)carbamoyl}methyl)amino]methyl}-N-methanesulfonyl-N-methylpyridine-4-carboxamide]
13 | < 1 | CCN(CCN(C)C)C(=O)CNCc1cc(C(=O)OC(C)CC(C)=O)ccn1 (centres unmarked) [drawing 238, 4-oxopentan-2-yl 2-{[({[2-(dimethylamino)ethyl](ethyl)carbamoyl}methyl)amino]methyl}pyridine-4-carboxylate]
14 | < 1 | CCN(CCN(C)C)C(=O)CNCc1cc(C(=O)Oc2ccc(OC)cc2)ccn1 [drawing 234, 4-methoxyphenyl 2-{[({[2-(dimethylamino)ethyl](ethyl)carbamoyl}methyl)amino]methyl}pyridin-4-carboxylate]
15 | < 1 | CCN(CCN(C)C)C(=O)CNCc1cc(C(=O)OCC(F)F)ccn1 [drawing 256, 2,2-difluoroethyl 2-{[({[2-(dimethylamino)ethyl](ethyl)carbamoyl}methyl)amino]methyl}pyridine-4-carboxylate]
16 | 1 to 50 | CCN(CCN(C)C)C(=O)CNCc1cc(C(=O)N2CCOC2=O)ccn1 [drawing 248, N-[2-(dimethylamino)ethyl]-N-ethyl-2-({[4-(2-oxo-1,3-oxazolidine-3-carbonyl)pyridin-2-yl]methyl}amino)acetamide]
17 | < 1 | CCN(CCN(C)C)C(=O)CNCc1cc(C(=O)Oc2ccc(C(C)(C)C)cc2)ccn1 [drawing 237, 4-tert-butylphenyl 2-{[({[2-(dimethylamino)ethyl](ethyl)carbamoyl}methyl)amino]methyl}pyridine-4-carboxylate]
18 | 1 to 50 | CCN(CCN(C)C)C(=O)CNCc1cc(C(=O)Nc2nccn2C)ccn1 [drawing 254, 2-{[({[2-(dimethylamino)ethyl](ethyl)carbamoyl}methyl)amino]methyl}-N-(1-methyl-1H-imidazol-2-yl)pyridine-4-carboxamide]
19 | < 1 | CCOC(=O)c1ccnc(CNCC(=O)N(CC)CCN(C)C)c1 [drawing 241, ethyl 2-{[({[2-(dimethylamino)ethyl](ethyl)carbamoyl}methyl)amino]methyl}pyridine-4-carboxylate]
20 | < 1 | CCN(CCN(C)C)C(=O)CNCc1cc(C(=O)OCC(F)(F)F)ccn1 [drawing 251, 2,2,2-trifluoroethyl 2-{[({[2-(dimethylamino)ethyl](ethyl)carbamoyl}methyl)amino]methyl}pyridine-4-carboxylate]
21 | < 1 | CCN(CCN(C)C)C(=O)CNCc1cc(C(=O)OC(C)CCNC(=O)C(F)(F)F)ccn1 (centres unmarked) [drawing 239, 4-(trifluoroacetamido)butan-2-yl 2-{[({[2-(dimethylamino)ethyl](ethyl)carbamoyl}methyl)amino]methyl}pyridin-4-carboxylate]
22 | < 1 | CCN(CCN(C)C)C(=O)CNCc1cc(C(=O)OCCF)ccn1 [drawing 255, 2-fluoroethyl 2-{[({[2-(dimethylamino)ethyl](ethyl)carbamoyl}methyl)amino]methyl}pyridine-4-carboxylate]
23 | 1 to 50 | CCN(CCN(C)C)C(=O)CNCc1cc(C(=O)O)ccn1 [drawing 226, 2-{[({[2-(dimethylamino)ethyl](ethyl)carbamoyl}methyl)amino]methyl}pyridine-4-carboxylic acid]

What follows are molecules tested against T1, PLU1 (KDM5B) (Homo sapiens, UniProt Q9UGL1) (assay: Immunofluorescence assay in U2OS cells transfected with pCMVHA PLU1 (H3K4me2 mark)). Conditions: 20 hours.
T1 construct: (1-752); host or cells: U2OS
T1 sequence (Q9UGL1 1-752): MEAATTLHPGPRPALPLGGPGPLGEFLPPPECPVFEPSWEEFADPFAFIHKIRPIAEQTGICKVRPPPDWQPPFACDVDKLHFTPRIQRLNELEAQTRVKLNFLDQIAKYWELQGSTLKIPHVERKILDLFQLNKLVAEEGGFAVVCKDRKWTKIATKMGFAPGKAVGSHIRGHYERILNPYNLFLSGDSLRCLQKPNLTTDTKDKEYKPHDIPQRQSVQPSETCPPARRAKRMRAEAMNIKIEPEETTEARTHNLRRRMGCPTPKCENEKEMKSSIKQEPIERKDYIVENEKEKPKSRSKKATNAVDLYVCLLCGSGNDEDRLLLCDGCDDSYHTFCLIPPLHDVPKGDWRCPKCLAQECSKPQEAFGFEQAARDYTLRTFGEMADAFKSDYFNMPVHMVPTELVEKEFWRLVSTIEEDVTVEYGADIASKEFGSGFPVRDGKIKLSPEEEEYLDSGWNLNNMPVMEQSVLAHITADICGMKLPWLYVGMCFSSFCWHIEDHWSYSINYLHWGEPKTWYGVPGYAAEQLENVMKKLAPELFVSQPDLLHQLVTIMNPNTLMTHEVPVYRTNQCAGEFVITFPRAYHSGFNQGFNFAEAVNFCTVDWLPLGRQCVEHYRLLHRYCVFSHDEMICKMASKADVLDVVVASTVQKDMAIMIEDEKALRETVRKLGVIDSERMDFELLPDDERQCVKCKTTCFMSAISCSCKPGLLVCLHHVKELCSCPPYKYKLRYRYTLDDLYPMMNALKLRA
Format: cell-based
Method: U2OS cells were seeded 24 hours before transfection. Transfection was performed with Fugene HD transfection reagent as recommended by the manufacturer. 6 hours after transfection, the cells were harvested and seeded into multi well plates into media containing compound. The media used was DMEM containing 5% FBS and pen/strep. 20 hours after incubation of cells with compounds, the cells were washed once in PBS, harvested by fixation with formaldehyde 4% aqueous solution, and washed 2 times in PBS. Subsequently, the cells were permeabilized in PBS with 0.2% Triton X-100 for 10 min at room temperature. Blocking was performed in PBS with 0.2% Triton X-100 and 5% FBS for 45 min at room temperature. The cells were incubated with primary antibodies diluted 1 μg/ml in blocking solution over night at 4° C. The primary antibodies used in the assays were HA.11 (Covance, MMS-101P) and the antibody detecting the mark specified in the Table 6 below. After incubation with primary antibodies, the cells were washed 3 times with PBS, incubated with secondary antibodies diluted 1:1000 (Alexa fluor 594 goat anti rabbit IgG, Invitrogen, A11012; Alexa flour 488 donkey anti mouse IgG, Invitrogen, A21202) and Hoechst, 20 μg/ml (Sigma, 33342) in blocking solution, and washed again 3 times with PBS. Finally, PBS was added and high throughput imaging and analysis were performed by an IN Cell Analyzer 1000 (GE Healthcare). The robot software analyzed individual cells and divided these into HA^+ (transfected cells) and HA^− (non-transfected cells). The IC50 values in Table 7 below were based on an average measure of the staining of the mark specified in the Table 6 below in the transfected cells.

Row | IC50 [µM] | SMILES
24 | > 50 | CN(CCCCN(Cc1ccccc1)C1CC1)C(=O)CNCc1cc(C(=O)O)ccn1 [drawing 323]
25 | 1 to 50 | CCCCN1CCCC1CCNCc1cc(C(=O)O)ccn1 (centres unmarked) [drawing 321, 2-({[2-(1-butylpyrrolidin-2-yl)ethyl]amino}methyl) pyridine-4-carboxylic acid]
26 | 1 to 50 | CCN(CCC#N)C(=O)CNCc1cc(C(=O)O)ccn1 [drawing 320, 2-[({[(2-cyanoethyl)(ethyl)carbamoyl]methyl}amino)methyl] pyridine-4-carboxylic acid]
